Entries after “also recorded” stand apart in the source; their conditions may differ. Counter-ions that a name gives are not always drawn.
Test system: Ia^d on colonic endothelium and epithelium
Assay: Ia^d expression and anti-Ia^d antibody localization in the gut of BALB/c nu/nu mice given oral tetracycline-HCl (indirect immunoperoxidase staining)
Type: in vivo, mouse
Procedure: BALB/c nu/nu mice were purchased from Simonsen (Gilroy, Calif.). SCID mice were from the UT Southwestern Medical Center breeding colony. All animals were maintained in microisolation units on sterilized food and water. Where indicated, tetracycline-HCI (Vedeo, St. Joseph, Mo.) was added to drinking water to a final concentration of 1.1 mg/ml (Harkness et al., 1983). Both strains carry the H-2^d haplotype.
For the establishment of solid tumors, a total of 2×10^7 C1300 or C1300 (Muγ) cells, or a mixture of the two, in 200 μl MEM-30% FCS were injected subcutaneously into the right anterior flank of BALB/c nu/nu or SCID mice. Tumor diameters were measured at regular intervals and the animals were euthanized after 16 days (rapidly-growing tumors) or 20 days (slowly-growing tumors). Tumors and normal tissues were excised immediately and snap-frozen over liquid nitrogen. Normal tissues were also harvested from non-tumor-bearing animals. Antibody localization studies were performed in animals bearing 1 cm subcutaneous tumors induced by injection of C1300 and C1300 (Muγ) in the ratio 7:3. One hundred micrograms of unconjugated M5/114 or CAMPATH-2 antibodies or 100 μg biotinylated 11-4.1 or WT-1 antibodies in 100 μl PBS were injected intravenously. At various times thereafter the animals were euthanized and their circulation was flushed with PBS for 5 minutes before removal and freezing of tumors and normal tissues as before. […] frozen sections were cut on a Tissuetek 2 cryostat (Baxter) and air-dried for 2 hours at room temperature. Slides were stored at -20° C. for up to 3 months before assay.
Indirect immunoperoxidase staining for rat IgG was adapted from a method described by Billington et al. (1986). Sections were allowed to return to room temperature, air dried for 30 minutes and fixed in acetone for 15 minutes. After rehydration in PBS for 5 minutes, sections were incubated in a humidified chamber for 45-60 minutes with primary antibodies, diluted optimally in PBS-0.2% BSA, (PBS-BSA). […]

CN(C)[C@@H]1C(O)=C(C(N)=O)C(=O)[C@@]2(O)C(O)=C3C(=O)c4c(O)cccc4[C@@](C)(O)[C@H]3C[C@@H]12 [tetracycline-Hcl, tetracycline-HCI]
localization of intravenously-injected anti-Ia^d antibody to colonic endothelial cells (oral administration before antibody injection): abolished localization
Ia^d expression in the colon and elsewhere in the gut (oral, 1-3 weeks): progressive diminution; also recorded: diminished Ia^d expression
numbers of intravillous CD3-positive cells (oral, 1-3 weeks): dramatic decrease

Reference: patent US5776427A, “Methods for targeting the vasculature of solid tumors” (Board of Regents, The University of Texas System, priority 1995, dated 1998)
